Source: PubChem BioAssay AID1963970 (Molecular Pharmacology Branch, DTP, NCI, 2024)

System: 931267-113-T-J1-PDC multicell spheroid viability
Experiment: Anticancer human tumor 931267-113-T-J1-PDC patient-derived colon adenocarcinoma cell line growth inhibition [PI3K]
Conditions: for IC50: curve of first compound; for viability, T/C: stronger effect = lower value; active = viability on the fitted dose curve at most 10% of control; inactive = the rest
In short: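 Tumor cells grown as multi-cell spheroids with HUVEC endothelial cells and MSC fibroblast-like stroma were treated with targeted agents combined with inavolisib, alpelisib, duvelisib or copanlisib. Doses fell in half-log steps from near clinical Cmax, else from 10 microM. Viability was measured.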

[1] = second compound 0.0316 µM, first compound 0.000316 µM
[2] = second compound 0.0316 µM, first compound 0.001 µM
[3] = second compound 0.0316 µM, first compound 0.00316 µM
[4] = second compound 0.0316 µM, first compound 0.01 µM
[5] = second compound 0.0316 µM, first compound 0.0316 µM
[6] = second compound 0.0316 µM, first compound 0.1 µM
[7] = second compound 0.1 µM, first compound 0.000316 µM
[8] = second compound 0.1 µM, first compound 0.001 µM
[9] = second compound 0.1 µM, first compound 0.00316 µM
[10] = second compound 0.1 µM, first compound 0.01 µM
[11] = second compound 0.1 µM, first compound 0.0316 µM
[12] = second compound 0.1 µM, first compound 0.1 µM
[13] = second compound 0.316 µM, first compound 0.000316 µM
[14] = second compound 0.316 µM, first compound 0.001 µM
[15] = second compound 0.316 µM, first compound 0.00316 µM
[16] = second compound 0.316 µM, first compound 0.01 µM
[17] = second compound 0.316 µM, first compound 0.0316 µM
[18] = second compound 0.316 µM, first compound 0.1 µM
[19] = second compound 1 µM, first compound 0.000316 µM
[20] = second compound 1 µM, first compound 0.001 µM
[21] = second compound 1 µM, first compound 0.00316 µM
[22] = second compound 1 µM, first compound 0.01 µM
[23] = second compound 1 µM, first compound 0.0316 µM
[24] = second compound 1 µM, first compound 0.1 µM
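Note: viability read 7 days after compound addition.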

CC(=O)c1c(C)c2cnc(Nc3ccc(N4CCNCC4)cn3)nc2n(C2CCCC2)c1=O + COc1c(OCCCN2CCOCC2)ccc2c3n(c(=NC(=O)c4cnc(N)nc4)nc12)CCN3
> 0.1 µM: IC50 (second compound 0.00316 µM) | IC50 (second compound 0.01 µM) | IC50 (second compound 0.0316 µM) | IC50 (second compound 0.1 µM)
inactive: viability, T/C (second compound 0.00316 µM, first compound 0.000316 µM) 108% | viability, T/C (second compound 0.00316 µM, first compound 0.001 µM) 102% | viability, T/C (second compound 0.00316 µM, first compound 0.00316 µM) 94.8% | viability, T/C (second compound 0.00316 µM, first compound 0.01 µM) 99.6% | viability, T/C (second compound 0.00316 µM, first compound 0.0316 µM) 97.3% | viability, T/C (second compound 0.00316 µM, first compound 0.1 µM) 94.8% | viability, T/C (second compound 0.01 µM, first compound 0.000316 µM) 105% | viability, T/C (second compound 0.01 µM, first compound 0.001 µM) 97.7% | viability, T/C (second compound 0.01 µM, first compound 0.00316 µM) 92.7% | viability, T/C (second compound 0.01 µM, first compound 0.01 µM) 94% | viability, T/C (second compound 0.01 µM, first compound 0.0316 µM) 98.6% | viability, T/C (second compound 0.01 µM, first compound 0.1 µM) 91.5% | viability, T/C [1] 77.5% | viability, T/C [2] 84.4% | viability, T/C [3] 76.2% | viability, T/C [4] 80.9% | viability, T/C [5] 82.3% | viability, T/C [6] 79.4% | viability, T/C [7] 70.8% | viability, T/C [8] 65% | viability, T/C [9] 66.2% | viability, T/C [10] 64.1% | viability, T/C [11] 67.7% | viability, T/C [12] 51.2% | viability, T/C [13] 51.9% | viability, T/C [14] 47.2% | viability, T/C [15] 47.6% | viability, T/C [16] 43.8% | viability, T/C [17] 44.5% | viability, T/C [18] 37.5% | viability, T/C [19] 35.1% | viability, T/C [20] 35.9% | viability, T/C [21] 32.2% | viability, T/C [22] 31.9% | viability, T/C [23] 34.3% | viability, T/C [24] 26.1%
< 0.000316 µM: IC50 (second compound 1 µM)
0.000489 µM: IC50 (second compound 0.316 µM)

CC(=O)c1c(C)c2cnc(Nc3ccc(N4CCNCC4)cn3)nc2n(C2CCCC2)c1=O + CC(Nc1ncnc2nc[nH]c12)c1cc2cccc(Cl)c2c(=O)n1-c1ccccc1
> 0.1 µM: IC50 (second compound 0.0316 µM) | IC50 (second compound 0.1 µM) | IC50 (second compound 0.316 µM) | IC50 (second compound 1 µM) | IC50 (second compound 3.16 µM) | IC50 (second compound 10 µM)
inactive: viability, T/C [1] 115% | viability, T/C [2] 99% | viability, T/C [3] 96.5% | viability, T/C [4] 101% | viability, T/C [5] 120% | viability, T/C [6] 114% | viability, T/C [7] 106% | viability, T/C [8] 104% | viability, T/C [9] 110% | viability, T/C [10] 99.5% | viability, T/C [11] 110% | viability, T/C [12] 103% | viability, T/C [13] 109% | viability, T/C [14] 105% | viability, T/C [15] 98.1% | viability, T/C [16] 111% | viability, T/C [17] 108% | viability, T/C [18] 94.6% | viability, T/C [19] 104% | viability, T/C [20] 105% | viability, T/C [21] 104% | viability, T/C [22] 114% | viability, T/C [23] 99% | viability, T/C [24] 102% | viability, T/C (second compound 3.16 µM, first compound 0.000316 µM) 106% | viability, T/C (second compound 3.16 µM, first compound 0.001 µM) 95.7% | viability, T/C (second compound 3.16 µM, first compound 0.00316 µM) 90.7% | viability, T/C (second compound 3.16 µM, first compound 0.01 µM) 98% | viability, T/C (second compound 3.16 µM, first compound 0.0316 µM) 103% | viability, T/C (second compound 3.16 µM, first compound 0.1 µM) 96.1% | viability, T/C (second compound 10 µM, first compound 0.000316 µM) 97.3% | viability, T/C (second compound 10 µM, first compound 0.001 µM) 94.9% | viability, T/C (second compound 10 µM, first compound 0.00316 µM) 98% | viability, T/C (second compound 10 µM, first compound 0.01 µM) 93.3% | viability, T/C (second compound 10 µM, first compound 0.0316 µM) 94.7% | viability, T/C (second compound 10 µM, first compound 0.1 µM) 84.3%
